ChEMBL document CHEMBL1130489, “Synthesis and anti-HIV activity of some new aminoadamantane heterocycles” (Bioorg Med Chem Lett, 1997)

What was measured:
Settings in all cases: Homo sapiens
MT4 [1] = assay: Cytotoxic concentration required to reduce the viability of MT-4 cells by 50%; format: functional
MT4 [2] = assay: Concentration required to protect MT-4 cells against the cytopathogenicity of HIV-2 (ROD); format: functional, cell-based
MT4 [3] = assay: Concentration required to protect MT-4 cells against the cytopathogenicity of HIV-1 (IIIB/LAI); format: functional, cell-based

Row | SMILES | CC50 (MT4 [1]) [µM] | EC50 (MT4 [2]) [µM] | EC50 (MT4 [3]) [µM]
1 | CN(C)CCN1CCCCC1C12CC3CC(CC(C3)C1)C2 (configuration not stated) | 274 | > 276 | 40.8
2 | C1CCC(C23CC4CC(CC(C4)C2)C3)NC1 (configuration not stated) | 403 | > 403 | > 403
3 | c1ccc(CN2CCCCC2C23CC4CC(CC(C4)C2)C3)cc1 (configuration not stated) | 62.7 | > 64 | > 64
4 | S=C(Nc1ccc(Cl)cc1Cl)N1CCCCC1C12CC3CC(CC(C3)C1)C2 (configuration not stated) | 17.7 | > 19 | > 19
5 | C1CCN(CC2CC2)C(C23CC4CC(CC(C4)C2)C3)C1 (configuration not stated) | 263 | > 265 | 75.2
6 | CCN1CCCCC1C12CC3CC(CC(C3)C1)C2 (configuration not stated) | 417 | > 419 | > 419
7 | O=C(Nc1ccc(Cl)cc1)N1CCCCC1C12CC3CC(CC(C3)C1)C2 (configuration not stated) | 12.6 | > 13 | > 13
8 | C1CCN(CCN2CCCCC2C23CC4CC(CC(C4)C2)C3)CC1 (configuration not stated) | 52.6 | > 54 | 3.6
9 | CN1CCCCC1C12CC3CC(CC(C3)C1)C2 (configuration not stated) | 413 | > 415 | > 415
